This note sets out measurements from article PMC11474028, “Lipopeptide antibiotics disrupt interactions of undecaprenyl phosphate with UptA” (Proceedings of the National Academy of Sciences of the …, 2024).

In this experiment the target is UptA (Bacillus subtilis, UniProt O31823). As to the kind of experiment: biochemical. It is filed as binding. As for the experimental part: We explored the binding affinity of UptA toward C55-P by recording mass spectra for solutions containing 2.5 µM UptA and 0 to 40 µM C55-P in 200 mM ammonium acetate, 0.05% LDAO at pH 8.0. […] Further increase in the concentration of C55-P enhanced the intensity of the UptA:C55-P complex, together with the emergence of additional binding events (Fig. 2A). We deconvoluted the spectra ([34]) to extract mean relative intensities of bound and unbound forms of UptA in the spectral series.
To investigate the binding selectivity of UptA for monophosphate (C55-P) versus diphosphate (C55-PP) forms of the lipid carrier, we performed comparative binding assays. First, we recorded mass spectra for a mixture of UptA with increasing concentrations of C55-PP (SI Appendix, Fig. S3). […] We then fit the data to Hill equation to obtain an apparent Kd for this system.
UptA is a member of the DedA family of transporters whose cellular functions are potentially driven by proton-motive force and provide conditional fitness to bacteria under alkaline conditions ([25], [26], [36]). […] To this end, we equilibrated C55-P with UptA at a protein/ligand molar ratio of 1:4 in a buffer of the same composition but at pH 8.0 and 5.0. […] As a negative control, we tested for pH sensitivity of C55-P binding to MraY, the latter being the downstream enzyme in the peptidoglycan pathway that couples UM5 to C55-P. To this end, we equilibrated MraY and C55-P at a molar ratio of 1:4 in a buffer of pH 8.0 and pH 5.0.
Next, we investigated the chain length selectivity of UptA by testing its interaction with geranylgeranyl phosphate (C20-P), hexaprenyl phosphate (C30-P), and C55-P; the latter representing the native form of the lipid carrier in the model organisms B. subtilis and E. coli ([39]). For this experiment, we incubated 4 µM UptA with a 10-fold molar excess of C20-P, C30-P, and C55-P at pH 8.0 and recorded spectra under the same conditions. […] The length and stereochemistry of lipid tails can influence their interactions with membrane proteins ([40]).
Detailed experimental procedures are provided in SI Appendix. Briefly, UptA (wild type and mutants) was expressed in E. coli C43(DE3) cells (Lucigen) with GFP fusion on the C-terminus and solubilized from the membrane fraction by n-dodecyl-β-D-maltopyranoside (DDM). After purification by affinity chromatography, the GFP was cleaved by TEV protease and removed, and UptA was further purified by size-exclusion chromatography in a buffer containing 20 mM Tris-HCl (pH 8.0), 200 mM NaCl, 0.02% DDM. Before measurements, proteins were buffer-exchanged into 0.05% LDAO, 200 mM ammonium acetate at the desired pH using a centrifugal buffer exchange device (Micro Bio-Spin 6, Bio-Rad). Stock solutions of lipids were prepared from chloroform/methanol solution by evaporating aliquots of known volume in a SpeedVac. After drying, the lipid films were weighed and resuspended to a final concentration of 0.5 mM in 200 mM ammonium acetate and 0.05% LDAO by vertexing.

Entries after “also recorded” stand apart in the source; their conditions may differ.

Chain of UptA (O31823 whole entry): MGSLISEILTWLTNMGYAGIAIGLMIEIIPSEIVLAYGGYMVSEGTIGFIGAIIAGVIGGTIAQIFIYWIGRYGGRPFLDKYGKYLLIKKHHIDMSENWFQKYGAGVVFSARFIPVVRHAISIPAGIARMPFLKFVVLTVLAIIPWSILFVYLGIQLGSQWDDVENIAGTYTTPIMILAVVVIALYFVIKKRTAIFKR

For `CC(C)=CCC/C(C)=C/CC/C(C)=C/CC/C(C)=C\CC/C(C)=C\CC/C(C)=C\CC/C(C)=C\CC/C(C)=C\CC/C(C)=C\CC/C(C)=C\CC/C(C)=C\COP(=O)(O)O` [C55-P, undecaprenyl phosphate], the “protein/ligand molar ratio at which relative intensity of first binding event plateaued” value (2.5 µM UptA, 0 to 40 µM C55-P, pH 8.0, 0.05% LDAO) is ~ 4. Also, the “binding to UptA by lipid chain length (in words)” value (4 µM UptA, 10-fold molar excess (40 µM) of lipid, pH 8.0, 200 mM ammonium acetate, 0.05% LDAO) is “highest intensity of protein/ligand complexes; also recorded: more favorably than C55-PP, C30-P, and C20-P”. For the same compound, the “binding to UptA, equimolar mixture (in words)” value (equimolar UptA and C55-P, 200 mM ammonium acetate, 0.05% LDAO, pH 8.0) is listed as “high-affinity binding interactions”. Moreover, the Kd (native MS, 2.5 µM UptA, 0 to 40 µM C55-P, 200 mM ammonium acetate, 0.05% LDAO, pH 8.0, Hill equation fit to mean relative intensities of three replicates, 95% CI: C55-P 5.0 to 6.4 µM, C55-PP 9.5 to 32.8 µM, read-out: apparent Kd for the binding of one ligand molecule (1×) to UptA) is 5.7 µM. Moreover, the “selectivity of UptA for C55-P versus C55-PP (in words)” value (native MS, 200 mM ammonium acetate, pH 8, 0.05% LDAO) is reported as “UptA is more selective toward C55-P than C55-PP”. The “pH sensitivity of C55-P binding to UptA (in words)” value (pH 8.0 vs pH 5.0) is given as “environmental pH modulates the interaction of C55-P with UptA; also recorded: less C55-P binding to UptA in the presence of excess H^+”. Moreover, the “number of C55-P molecules in complex with UptA dimer” value (protein/ligand molar ratio 1:4, pH 8.0) was “up to two”. Besides, the “factor by which ligand-bound UptA peaks are more intense at pH 8.0 compared to pH 5.0” value (protein/ligand molar ratio 1:4, pH 8.0 vs pH 5.0, 200 mM ammonium acetate, 0.05% LDAO) turned out to be 3. For the same compound, the “C55-P binding to UptA dimer versus monomer (in words)” value (wild type, protein/ligand molar ratio 1:4, pH 8.0) is reported as “dimer interacts more favorably with C55-P than the monomer UptA”.
